Measurements published in the NIST ThermoML archive (doi:10.1016/j.jct.2016.05.001).
± gives the expanded uncertainty stated by the source.

Conditions: 101.33 kPa, Crystal; for molar entropy: Small (less than 1 g) adiabatic calorimetry; for mass density: X-ray diffraction

Q: Which molar entropy (4 K) does the source give for `Nc1nc2ncc(CNc3ccc(C(=O)N[C@@H](CCC(=O)O)C(=O)O)cc3)nc2c(=O)[nH]1.O.O` [folic acid dihydrate] here?
A: 0.0255 ± 0.024 J/K/mol

Q: What about the molar entropy (5 K) of the same compound?
A: 0.0623 ± 0.025 J/K/mol

Q: What about the molar entropy (6 K) of the same compound?
A: 0.1291 ± 0.026 J/K/mol

Q: And the molar entropy (7 K)?
A: 0.2371 ± 0.028 J/K/mol

Q: What about the molar entropy (8 K) of the same compound?
A: 0.3983 ± 0.031 J/K/mol

Q: What about the molar entropy (9 K) of the same compound?
A: 0.6346 ± 0.038 J/K/mol

Q: And the molar entropy (10 K)?
A: 0.962 ± 0.048 J/K/mol

Q: What about the molar entropy (15 K) of the same compound?
A: 3.956 ± 0.14 J/K/mol

Q: And the molar entropy (20 K)?
A: 8.733 ± 0.29 J/K/mol

Q: What about the molar entropy (25 K) of the same compound?
A: 15.36 ± 0.5 J/K/mol

Q: What about the molar entropy (30 K) of the same compound?
A: 23.55 ± 0.74 J/K/mol

Q: And the molar entropy (35 K)?
A: 32.93 ± 1 J/K/mol

Q: And the molar entropy (40 K)?
A: 43.15 ± 1.3 J/K/mol

Q: And the molar entropy (45 K)?
A: 53.9 ± 0.9 J/K/mol

Q: And the molar entropy (50 K)?
A: 65 ± 1.1 J/K/mol

Q: And the molar entropy (60 K)?
A: 87.81 ± 1.4 J/K/mol

Q: And the molar entropy (70 K)?
A: 111.2 ± 1.8 J/K/mol

Q: What about the molar entropy (80 K) of the same compound?
A: 134.6 ± 2.2 J/K/mol

Q: What about the molar entropy (90 K) of the same compound?
A: 157.6 ± 1.3 J/K/mol

Q: What about the molar entropy (100 K) of the same compound?
A: 180.2 ± 1.5 J/K/mol

Q: What about the molar entropy (110 K) of the same compound?
A: 202.6 ± 1.6 J/K/mol

Q: And the molar entropy (120 K)?
A: 224.6 ± 1.8 J/K/mol

Q: What about the molar entropy (130 K) of the same compound?
A: 246.2 ± 1.9 J/K/mol

Q: And the molar entropy (140 K)?
A: 267.7 ± 2.1 J/K/mol

Q: And the molar entropy (150 K)?
A: 288.9 ± 2.3 J/K/mol

Q: And the mass density (150 K)?
A: 1556 ± 6 kg/m3

Q: What about the molar entropy (160 K) of the same compound?
A: 309.9 ± 2.4 J/K/mol

Q: And the molar entropy (170 K)?
A: 330.6 ± 2.6 J/K/mol

Q: And the mass density (175 K)?
A: 1554 ± 6 kg/m3

Q: And the molar entropy (180 K)?
A: 351.2 ± 2.7 J/K/mol

Q: And the molar entropy (190 K)?
A: 371.6 ± 2.9 J/K/mol

Q: And the molar entropy (200 K)?
A: 391.9 ± 3 J/K/mol

Q: And the mass density (200 K)?
A: 1552 ± 6 kg/m3

Q: What about the molar entropy (210 K) of the same compound?
A: 412 ± 3.2 J/K/mol

Q: What about the molar entropy (220 K) of the same compound?
A: 432 ± 3.3 J/K/mol

Q: And the mass density (225 K)?
A: 1550 ± 6 kg/m3

Q: What about the molar entropy (230 K) of the same compound?
A: 451.9 ± 3.4 J/K/mol

Q: What about the molar entropy (240 K) of the same compound?
A: 471.7 ± 3.6 J/K/mol

Q: And the molar entropy (250 K)?
A: 491.4 ± 3.7 J/K/mol

Q: What about the mass density (250 K) of the same compound?
A: 1549 ± 6 kg/m3

Q: What about the molar entropy (260 K) of the same compound?
A: 511 ± 3.9 J/K/mol

Q: And the molar entropy (270 K)?
A: 530.5 ± 4 J/K/mol

Q: What about the molar entropy (273.15 K) of the same compound?
A: 536.6 ± 4.1 J/K/mol

Q: And the mass density (275 K)?
A: 1546 ± 6 kg/m3

Q: And the molar entropy (280 K)?
A: 549.9 ± 4.2 J/K/mol

Q: What about the molar entropy (290 K) of the same compound?
A: 569.3 ± 4.3 J/K/mol

Q: And the molar entropy (298.15 K)?
A: 585 ± 4.4 J/K/mol

Q: And the molar entropy (300 K)?
A: 588.6 ± 4.5 J/K/mol

Q: What about the mass density (300 K) of the same compound?
A: 1543 ± 6 kg/m3

Q: And the molar entropy (310 K)?
A: 607.8 ± 4.6 J/K/mol

Q: And the molar entropy (320 K)?
A: 627 ± 4.7 J/K/mol

Q: What about the mass density (325 K) of the same compound?
A: 1542 ± 6 kg/m3

Q: And the molar entropy (330 K)?
A: 646.1 ± 4.9 J/K/mol

Q: And the molar entropy (333 K)?
A: 651.9 ± 4.9 J/K/mol

Q: What about the mass density (350 K) of the same compound?
A: 1540 ± 6 kg/m3

Q: And the mass density (375 K)?
A: 1537 ± 6 kg/m3
